Source: patent US20250376458A1, “COMPOUNDS AND METHODS FOR YAP/TEAD MODULATION AND INDICATIONS THEREFOR” (OPNA BIO SA, priority 2023, published 2025)

Test system: TEAD-dependent transcription
Assay: TEAD-dependent transcription cell-based luciferase reporter assay (MSTO-211H+12XGTIIC)
Parameters: species or system human
Conditions: Homo sapiens, MSTO-211H, 24 h, MSTO-211H+12XGTIIC cell line, 24 hours compound incubation, luminescence normalized to cell viability fluorescence signal; read-out: MSTO-211H GMean IC50 (uM) Cell Assay Reporter Cell Variant: TEAD
Source text: Determine Inhibitor Activity Against TEAD-Dependent Transcription in a Cell-Based Reporter Assay
The human mesothelioma cell line MSTO-211H was stably transfected with a pGL4.21 plasmid containing a synthetic promoter with 12 copies of the GTIIC TEAD response element that drives the expression of a luciferase reporter gene i using Lipofectamine transfection reagent (Thermo Fisher). Transfected cells were selected using puromycin and single cell clones expressing this construct (referred to as MSTO-211H+12XGTIIC) were generated by limiting dilution. MSTO-211H cells was characterized by genetic alterations in key components of the Hippo pathway^2, resulting in up-regulation of YAP/TEAD-mediated transcription. […] To evaluate TEAD inhibitors, the MSTO-211H+12XGTIIC cell line was seeded in a 96-well plate in 50 μL of culture media at 1×10^4 cells per well and incubated at 37° C. overnight. Serial dilutions of compounds (in total volume of 50 μL of culture media) were added to the cells and incubated at 37° C. for 24 hours. Each plate included cells treated with DMSO as high controls and cells treated with 20 μM of the reference compound K-975 (a known TEAD inhibitor)^3 as low controls. Cell viability was assayed by the addition of 25 μL of CellTiter-Fluor reagent (Promega) followed by a 30-minute incubation at 37° C. and quantification of the fluorescence signal (Ex400/Em505). Subsequently, luciferase expression was assayed by the addition of 25 μL of ONE-Glo reagent (Promega) followed by a 10-minute incubation at room temperature and quantification of the luminescence signal. The luminescence signal was normalized to the fluorescence signal to correct for any loss in cell viability over the 24-hour compound incubation period. The percentage of inhibition of normalized luminescence signal, indicative of compound-mediated inhibition of TEAD-dependent transcription, at individual compound concentrations relative to high and low controls was calculated. The data were analyzed by using nonlinear regression to generate IC50 values for individual compounds.

First: CS(=O)(=O)c1nc(C(=O)N2CCc3c(cccc3Nc3ccc(C(F)(F)F)cn3)C2)c[nH]1 [O-0003, (2-(methylsulfonyl)-1H-imidazol-4-yl)(5-((5-(trifluoromethyl)pyridin-2-yl)amino)-3,4-dihydroisoquinolin-2(1H)-yl)methanone]
Second: CS(=O)(=O)c1nc(C(=O)N2CCc3c(cccc3Nc3ccc(C(F)(F)F)nc3)C2)c[nH]1 [O-0009, (2-(methylsulfonyl)-1H-imidazol-4-yl)(5-((6-(trifluoromethyl)pyridin-3-yl)amino)-3,4-dihydroisoquinolin-2(1H)-yl)methanone]
The IC50 of the first is lower: 0.001 to 10 µM for the first, 10 to 100 µM for the second.

First: CS(=O)(=O)c1nc(C(=O)N2CCc3c(cccc3Nc3ccc(C(F)(F)F)c(F)c3)C2)c[nH]1 [O-0004, (5-((3-fluoro-4-(trifluoromethyl)phenyl)amino)-3,4-dihydroisoquinolin-2(1H)-yl)(2-(methylsulfonyl)-1H-imidazol-4-yl)methanone]
Second: CCS(=O)(=O)c1nc(C(=O)N2CCc3c(cccc3Nc3ccc(C(F)(F)F)c(F)c3)C2)c[nH]1 [O-0025, (2-(ethylsulfonyl)-1H-imidazol-4-yl)(5-((3-fluoro-4-(trifluoromethyl)phenyl)amino)-3,4-dihydroisoquinolin-2(1H)-yl)methanone]
The IC50 of the first is lower: 0.001 to 10 µM for the first, greater than 100 µM for the second. The first is the more potent here.

`Cn1cc(C(=O)N2CCc3c(cccc3Nc3ccc(C(F)(F)F)cn3)C2)nc1S(C)(=O)=O` [O-0005, (1-methyl-2-(methylsulfonyl)-1H-imidazol-4-yl)(5-((5-(trifluoromethyl)pyridin-2-yl)amino)-3,4-dihydroisoquinolin-2(1H)-yl)methanone] and `Cn1c(C(=O)N2CCc3c(cccc3Nc3ccc(C(F)(F)F)cn3)C2)cnc1S(C)(=O)=O` [O-0006, (1-methyl-2-(methylsulfonyl)-1H-imidazol-5-yl)(5-((5-(trifluoromethyl)pyridin-2-yl)amino)-3,4-dihydroisoquinolin-2(1H)-yl)methanone] fall in the same range of IC50: 0.001 to 10 µM for the first, 0.001 to 10 µM for the second.

`Cn1cc(C(=O)N2CCc3c(cccc3Nc3ccc(C(F)(F)F)cc3)C2)nc1S(C)(=O)=O` [O-0007, (1-methyl-2-(methylsulfonyl)-1H-imidazol-4-yl)(5-((4-(trifluoromethyl)phenyl)amino)-3,4-dihydroisoquinolin-2(1H)-yl)methanone] and `Cn1c(C(=O)N2CCc3c(cccc3Nc3ccc(C(F)(F)F)cc3)C2)cnc1S(C)(=O)=O` [O-0008, (1-methyl-2-(methylsulfonyl)-1H-imidazol-5-yl)(5-((4-(trifluoromethyl)phenyl)amino)-3,4-dihydroisoquinolin-2(1H)-yl)methanone] fall in the same range of IC50: 0.001 to 10 µM for the first, 0.001 to 10 µM for the second.

First: CS(=O)(=O)c1nc(C(=O)N2CCc3c(cccc3Nc3ccc(C(F)(F)F)cc3F)C2)c[nH]1 [O-0010, (5-((2-fluoro-4-(trifluoromethyl)phenyl)amino)-3,4-dihydroisoquinolin-2(1H)-yl)(2-(methylsulfonyl)-1H-imidazol-4-yl)methanone]
Second: CS(=O)(=O)c1nc(C(=O)N2CCc3ccc(Nc4ccc(C(F)(F)F)cc4F)cc3C2)c[nH]1 [O-0017, (7-((2-fluoro-4-(trifluoromethyl)phenyl)amino)-3,4-dihydroisoquinolin-2(1H)-yl)(2-(methylsulfonyl)-1H-imidazol-4-yl)methanone]
The IC50 of the first is lower: 0.001 to 10 µM for the first, 10 to 100 µM for the second.

Compared with `CCS(=O)(=O)c1nc(C(=O)N2CCc3c(cccc3Oc3ccc(C(F)(F)F)cc3)C2)c[nH]1` [O-0011, (2-(ethylsulfonyl)-1H-imidazol-4-yl)(5-(4-(trifluoromethyl)phenoxy)-3,4-dihydroisoquinolin-2(1H)-yl)methanone], `CCCS(=O)(=O)c1nc(C(=O)N2CCc3c(cccc3Oc3ccc(C(F)(F)F)cc3)C2)c[nH]1` [O-0019, (2-(propylsulfonyl)-1H-imidazol-4-yl)(5-(4-(trifluoromethyl)phenoxy)-3,4-dihydroisoquinolin-2(1H)-yl)methanone] is lower in IC50: 10 to 100 µM for the first, 0.001 to 10 µM for the second.

First: CCS(=O)(=O)c1nc(C(=O)N2CCc3c(cccc3Nc3ccc(C(F)(F)F)cc3)C2)c[nH]1 [O-0012, (2-(ethylsulfonyl)-1H-imidazol-4-yl)(5-((4-(trifluoromethyl)phenyl)amino)-3,4-dihydroisoquinolin-2(1H)-yl)methanone]
Second: CCCS(=O)(=O)c1nc(C(=O)N2CCc3c(cccc3Nc3ccc(C(F)(F)F)cc3)C2)c[nH]1 [O-0020, (2-(propylsulfonyl)-1H-imidazol-4-yl)(5-((4-(trifluoromethyl)phenyl)amino)-3,4-dihydroisoquinolin-2(1H)-yl)methanone]
The IC50 of the first is higher: greater than 100 µM for the first, 0.001 to 10 µM for the second.

First: CS(=O)(=O)c1nc(C(=O)N2CCc3ccc(Nc4ccc(C(F)(F)F)cc4)cc3C2)c[nH]1 [O-0013, (2-(methylsulfonyl)-1H-imidazol-4-yl)(7-((4-(trifluoromethyl)phenyl)amino)-3,4-dihydroisoquinolin-2(1H)-yl)methanone]
Second: CS(=O)(=O)c1nc(C(=O)N2CCc3ccc(Nc4ccc(C(F)(F)F)cn4)cc3C2)c[nH]1 [O-0015, (2-(methylsulfonyl)-1H-imidazol-4-yl)(7-((5-(trifluoromethyl)pyridin-2-yl)amino)-3,4-dihydroisoquinolin-2(1H)-yl)methanone]
The IC50 of the first is higher: greater than 100 µM for the first, 10 to 100 µM for the second. The second is the more potent here.

`CS(=O)(=O)c1nc(C(=O)N2CCc3ccc(Nc4ccc(C(F)(F)F)nc4)cc3C2)c[nH]1` [O-0016, (2-(methylsulfonyl)-1H-imidazol-4-yl)(7-((6-(trifluoromethyl)pyridin-3-yl)amino)-3,4-dihydroisoquinolin-2(1H)-yl)methanone] and `CS(=O)(=O)c1nc(C(=O)N2CCc3cc(Oc4ccc(C(F)(F)F)cc4)ccc3C2)c[nH]1` [O-0073, (2-(methylsulfonyl)-1H-imidazol-4-yl)(6-(4-(trifluoromethyl)phenoxy)-3,4-dihydroisoquinolin-2(1H)-yl)methanone] fall in the same range of IC50: 10 to 100 µM for the first, 10 to 100 µM for the second.

`CC(C)S(=O)(=O)c1nc(C(=O)N2CCc3c(cccc3Oc3ccc(C(F)(F)F)cc3)C2)c[nH]1` [O-0021, (2-(isopropylsulfonyl)-1H-imidazol-4-yl)(5-(4-(trifluoromethyl)phenoxy)-3,4-dihydroisoquinolin-2(1H)-yl)methanone] and `CC(C)S(=O)(=O)c1nc(C(=O)N2CCc3c(cccc3Nc3ccc(C(F)(F)F)cc3)C2)c[nH]1` [O-0022, (2-(isopropylsulfonyl)-1H-imidazol-4-yl)(5-((4-(trifluoromethyl)phenyl)amino)-3,4-dihydroisoquinolin-2(1H)-yl)methanone] fall in the same range of IC50: 0.001 to 10 µM for the first, 0.001 to 10 µM for the second.

`CCCS(=O)(=O)c1nc(C(=O)N2CCc3c(cccc3Nc3ccc(C(F)(F)F)c(F)c3)C2)c[nH]1` [O-0026, (5-((3-fluoro-4-(trifluoromethyl)phenyl)amino)-3,4-dihydroisoquinolin-2(1H)-yl)(2-(propylsulfonyl)-1H-imidazol-4-yl)methanone] and `CC(C)S(=O)(=O)c1nc(C(=O)N2CCc3c(cccc3Nc3ccc(C(F)(F)F)c(F)c3)C2)c[nH]1` [O-0027, (5-((3-fluoro-4-(trifluoromethyl)phenyl)amino)-3,4-dihydroisoquinolin-2(1H)-yl)(2-(isopropylsulfonyl)-1H-imidazol-4-yl)methanone] fall in the same range of IC50: 0.001 to 10 µM for the first, 0.001 to 10 µM for the second.

`CS(=O)(=O)c1nc(C(=O)N2CCc3cc(Oc4ccc(C(F)(F)F)cc4F)ccc3C2)c[nH]1` [O-0075, (6-(2-fluoro-4-(trifluoromethyl)phenoxy)-3,4-dihydroisoquinolin-2(1H)-yl)(2-(methylsulfonyl)-1H-imidazol-4-yl)methanone] and `CCS(=O)(=O)c1nc(C(=O)N2CCc3cc(Oc4ccc(C(F)(F)F)cc4)ccc3C2)c[nH]1` [O-0079, (2-(ethylsulfonyl)-1H-imidazol-4-yl)(6-(4-(trifluoromethyl)phenoxy)-3,4-dihydroisoquinolin-2(1H)-yl)methanone] fall in the same range of IC50: 0.001 to 10 µM for the first, 0.001 to 10 µM for the second.

`CS(=O)(=O)c1nc(C(=O)N2CCc3cc(Oc4ccc(C(F)(F)F)c(F)c4)cnc3C2)c[nH]1` [O-0077, (3-(3-fluoro-4-(trifluoromethyl)phenoxy)-5,8-dihydro-1,7-naphthyridin-7(6H)-yl)(2-(methylsulfonyl)-1H-imidazol-4-yl)methanone] and `CCCS(=O)(=O)c1nc(C(=O)N2CCc3cc(Oc4ccc(C(F)(F)F)cc4)ccc3C2)c[nH]1` [O-0081, (2-(propylsulfonyl)-1H-imidazol-4-yl)(6-(4-(trifluoromethyl)phenoxy)-3,4-dihydroisoquinolin-2(1H)-yl)methanone] fall in the same range of IC50: 0.001 to 10 µM for the first, 0.001 to 10 µM for the second.

Same assay, conditions: MSTO-211H+12XGTIIC cell line, 24 hours compound incubation, luminescence normalized to cell viability fluorescence signal; read-out: MSTO-211H GMean IC50 (uM) Cell Assay Reporter Cell Variant: TEAD

`CS(=O)(=O)c1nc(C(=O)N2CCc3ccc(Nc4ccc(C(F)(F)F)c(F)c4)cc3C2)c[nH]1` [O-0018, (7-((3-fluoro-4-(trifluoromethyl)phenyl)amino)-3,4-dihydroisoquinolin-2(1H)-yl)(2-(methylsulfonyl)-1H-imidazol-4-yl)methanone] was tested, and the IC50 was 10 to 100 µM.
